Species on record: Rattus norvegicus
Test: Open TG-GATES - Regimen: Single
Assay type: toxicity, organism-based, Sprague-Dawley
Parameters: regimen Single, gender Male, age 6 weeks
Conditions: in vivo, po, 0 mg/kg, route gavage, dose level Control; for APTT / Bas / Eos / Fbg / Hb / Ht / Lym / MCH / MCHC / MCV / Mono / Neu / PT / Plat / RBC / Ret / WBC: tissue Blood; for KIDNEY_L / KIDNEY_R / KIDNEY_TOTAL: tissue Kidney; for LIVER: tissue Liver; for A/G / ALP / ALT / AST / BUN / CRE / Ca / Cl / DBIL / GLC / IP / K / LDH / Na / PL / RALB / TBIL / TC / TG / TP / gamma-GTP: tissue Plasma

## Cc1nnc2n1-c1ccc(Cl)cc1C(c1ccccc1Cl)=NC2 [TRIAZOLAM]
3 h
  TERMINAL_BW: 194.1 g
  APTT: 20.7 s
  Bas: 0%
  Eos: 0.8%
  Fbg: 266.4 mg/dL
  Hb: 13.6 g/dL
  Ht: 41.4%
  Lym: 76%
  MCH: 21.2 pg
  MCHC: 32.8%
  MCV: 64.7 fL
  Mono: 3%
  Neu: 19.2%
  PT: 13.6 s
  Plat: 126 x10_4/uL
  RBC: 640.6 x10_4/ul
  Ret: 9.3%
  WBC: 96.6 x10_2/uL
  KIDNEY_L: 0.8 g
  KIDNEY_R: 0.8 g
  KIDNEY_TOTAL: 1.6 g
  LIVER: 8.3 g
  A/G: 0.9
  ALP: 1477.8 IU/L
  ALT: 39.8 IU/L
  AST: 72.4 IU/L
  BUN: 10.6 mg/dL
  CRE: 0.2 mg/dL
  Ca: 11.3 mg/dL
  Cl: 105.6 meq/L
  DBIL: 0.012 mg/dL
  GLC: 179.2 mg/dL
  IP: 9.1 mg/dL
  K: 4.3 meq/L
  LDH: 100 IU/L
  Na: 140.8 meq/L
  PL: 150.2 mg/dL
  RALB: 2.5 g/dL
  TBIL: 0.062 mg/dL
  TC: 87.8 mg/dL
  TG: 47.6 mg/dL
  TP: 5.2 g/dL
  gamma-GTP: 1.2 IU/L
6 h
  TERMINAL_BW: 191.8 g
  APTT: 17.3 s
  Bas: 0%
  Eos: 0.8%
  Fbg: 258.8 mg/dL
  Hb: 13.6 g/dL
  Ht: 41.3%
  Lym: 81.4%
  MCH: 21.3 pg
  MCHC: 33%
  MCV: 64.7 fL
  Mono: 2.2%
  Neu: 15%
  PT: 13.5 s
  Plat: 133.4 x10_4/uL
  RBC: 639.4 x10_4/ul
  Ret: 8.5%
  WBC: 82 x10_2/uL
  KIDNEY_L: 0.9 g
  KIDNEY_R: 0.9 g
  KIDNEY_TOTAL: 1.7 g
  LIVER: 7.7 g
  A/G: 0.9
  ALP: 1476.8 IU/L
  ALT: 33.6 IU/L
  AST: 72 IU/L
  BUN: 7.8 mg/dL
  CRE: 0.2 mg/dL
  Ca: 10.7 mg/dL
  Cl: 106.8 meq/L
  DBIL: 0.01 mg/dL
  GLC: 177.8 mg/dL
  IP: 9.4 mg/dL
  K: 4.1 meq/L
  LDH: 104.2 IU/L
  Na: 141.8 meq/L
  PL: 138 mg/dL
  RALB: 2.5 g/dL
  TBIL: 0.068 mg/dL
  TC: 75.4 mg/dL
  TG: 51.6 mg/dL
  TP: 5.1 g/dL
  gamma-GTP: 1 IU/L
9 h
  TERMINAL_BW: 192.1 g
  APTT: 17.5 s
  Bas: 0%
  Eos: 0.6%
  Fbg: 271.8 mg/dL
  Hb: 13.2 g/dL
  Ht: 40.4%
  Lym: 77.4%
  MCH: 20.9 pg
  MCHC: 32.7%
  MCV: 64 fL
  Mono: 2%
  Neu: 19.4%
  PT: 13.7 s
  Plat: 112 x10_4/uL
  RBC: 631.8 x10_4/ul
  Ret: 8.8%
  WBC: 96.7 x10_2/uL
  KIDNEY_L: 0.9 g
  KIDNEY_R: 0.9 g
  KIDNEY_TOTAL: 1.7 g
  LIVER: 7.6 g
  A/G: 0.9
  ALP: 1320.2 IU/L
  ALT: 40.6 IU/L
  AST: 75 IU/L
  BUN: 9.2 mg/dL
  CRE: 0.2 mg/dL
  Ca: 10.6 mg/dL
  Cl: 106 meq/L
  DBIL: 0.008 mg/dL
  GLC: 188.4 mg/dL
  IP: 10.4 mg/dL
  K: 4.1 meq/L
  LDH: 79.8 IU/L
  Na: 141.6 meq/L
  PL: 132.4 mg/dL
  RALB: 2.4 g/dL
  TBIL: 0.062 mg/dL
  TC: 71.8 mg/dL
  TG: 40.8 mg/dL
  TP: 5.1 g/dL
  gamma-GTP: 1.2 IU/L
24 h
  TERMINAL_BW: 207 g
  APTT: 20.6 s
  Bas: 0%
  Eos: 1%
  Fbg: 279.8 mg/dL
  Hb: 13.2 g/dL
  Ht: 40.3%
  Lym: 78%
  MCH: 21.1 pg
  MCHC: 32.9%
  MCV: 64.1 fL
  Mono: 3%
  Neu: 16.6%
  PT: 13.1 s
  Plat: 116.7 x10_4/uL
  RBC: 628.2 x10_4/ul
  Ret: 8.3%
  WBC: 87 x10_2/uL
  KIDNEY_L: 0.9 g
  KIDNEY_R: 0.9 g
  KIDNEY_TOTAL: 1.8 g
  LIVER: 9.5 g
  A/G: 0.9
  ALP: 1736 IU/L
  ALT: 50 IU/L
  AST: 79.4 IU/L
  BUN: 13.6 mg/dL
  CRE: 0.2 mg/dL
  Ca: 11 mg/dL
  Cl: 105.2 meq/L
  DBIL: 0.01 mg/dL
  GLC: 178.4 mg/dL
  IP: 8.3 mg/dL
  K: 4.2 meq/L
  LDH: 109.8 IU/L
  Na: 141.2 meq/L
  PL: 145.8 mg/dL
  RALB: 2.5 g/dL
  TBIL: 0.054 mg/dL
  TC: 77.4 mg/dL
  TG: 80.8 mg/dL
  TP: 5.3 g/dL
  gamma-GTP: 1 IU/L
